These molecules were tested on phospholipase D1 (assay: PLD activity in HCT116 cells ([3H]phosphatidylbutanol, TLC)). Conditions: compound 10 μM, cells without the compound = 100%.
Assay type: cell-based, human
Experimental: To evaluate the inhibitory effect of the compounds according to the present invention on phospholipase D1 activity, experiments were conducted as follows.
For the analysis of PLD activity in cells, human colon cancer cell line (HCT116) was cultured in a 6-well plate at 37° C. for 24 hours, washed twice with phosphate-buffered saline (PBS), and then replaced with medium containing [^3H]myristate and cultured for 24 hours. After the culture, the cells were washed three times with PBS, treated with 1-butanol, and the drug was added to a final concentration of 10 μM. The cells were trypsinized and suspended, and the amount of [^3H]phosphatidylbutanol produced in the cell suspension was measured and evaluated for PLD activity using thin layer chromatography (TLC), and the results are shown in Table 1 below.
The Remaining activity % at 10 μM in Table 1 is calculated by setting the amount of [^3H]phosphatidylbutanol produced in cells without the compound as 100% and calculating the amount of [^3H]phosphatidylbutanol produced in cells treated with the compound as a percentage. Therefore, the lower the value of Remaining activity %, the higher the PLD inhibitory activity.
`O=C(Nc1ccc(Cl)c([N+](=O)[O-])c1)c1c[nH]c2ccccc12` [Example 1-1, N-(4-chloro-3-nitrophenyl)-1H-indole-3-carboxamide] was tested, and the “Remaining activity % at 10 μM” value was 86.43%. With `O=C(Nc1ccc(Br)cc1)c1c[nH]c2ccccc12` [Example 1-2, N-(4-bromophenyl)-1H-indole-3-carboxamide] the “Remaining activity % at 10 μM” value was 85.52%. `COc1ccc(NC(=O)c2c[nH]c3ccccc23)cc1OC` [Example 1-3, N-(3,4-dimethoxyphenyl)-1H-indole-3-carboxamide] was tested, and the “Remaining activity % at 10 μM” value was 62.73%. For `O=C(Nc1ccc(Cl)c(Cl)c1)c1c[nH]c2ccccc12` [Example 1-4, N-(3,4-dichlorophenyl)-1H-indole-3-carboxamide], the “Remaining activity % at 10 μM” value was 56.19%. `O=C(NCc1ccc(Cl)c(Cl)c1)c1c[nH]c2ccccc12` [Example 1-5, N-(3,4-dichlorobenzyl)-1H-indole-3-carboxamide] was tested, and the “Remaining activity % at 10 μM” value was 89.34%. For `O=C(Cc1c[nH]c2ccccc12)Nc1ccccc1O` [Example 1-7, N-(2-hydroxyphenyl)-2-(1H-indol-3-yl)acetamide], the “Remaining activity % at 10 μM” value was 65.03%. With `O=C(Cc1c[nH]c2ccccc12)Nc1cccc(O)c1` [Example 1-8, N-(3-hydroxyphenyl)-2-(1H-indol-3-yl)acetamide] the “Remaining activity % at 10 μM” value was 65.7%. `COc1ccccc1NC(=O)Cc1c[nH]c2ccccc12` [Example 1-9, 2-(1H-indol-3-yl)-N-(2-methoxyphenyl)acetamide] was tested, and the “Remaining activity % at 10 μM” value was 80.82%. In the case of `COc1cccc(NC(=O)Cc2c[nH]c3ccccc23)c1` [Example 1-10, 2-(1H-indol-3-yl)-N-(3-methoxyphenyl)acetamide], the “Remaining activity % at 10 μM” value is reported as 89.33%. In the case of `COc1ccc(NC(=O)Cc2c[nH]c3ccccc23)cc1` [Example 1-11, 2-(1H-indol-3-yl)-N-(4-methoxyphenyl)acetamide], the “Remaining activity % at 10 μM” value is reported as “not active”. For `O=C(Cc1c[nH]c2ccccc12)Nc1ccccc1F` [Example 1-12, N-(2-fluorophenyl)-2-(1H-indol-3-yl)acetamide], the “Remaining activity % at 10 μM” value was “not active”. `O=C(Cc1c[nH]c2ccccc12)Nc1cccc(F)c1` [Example 1-13, N-(3-fluorophenyl)-2-(1H-indol-3-yl)acetamide] was tested, and the “Remaining activity % at 10 μM” value was 30.28%. With `O=C(Cc1c[nH]c2ccccc12)Nc1ccc(F)cc1` [Example 1-14, N-(4-fluorophenyl)-2-(1H-indol-3-yl)acetamide] the “Remaining activity % at 10 μM” value was “not active”. For `O=C(Cc1c[nH]c2ccccc12)Nc1ccccc1Br` [Example 1-15, N-(2-bromophenyl)-2-(1H-indol-3-yl)acetamide], the “Remaining activity % at 10 μM” value was 30.42%. `O=C(Cc1c[nH]c2ccccc12)Nc1cccc(Br)c1` [Example 1-16, N-(3-bromophenyl)-2-(1H-indol-3-yl)acetamide] was tested, and the “Remaining activity % at 10 μM” value was 97.25%. With `O=C(Cc1c[nH]c2ccccc12)Nc1ccc(Br)cc1` [Example 1-17, N-(4-bromophenyl)-2-(1H-indol-3-yl)acetamide] the “Remaining activity % at 10 μM” value was “not active”. For `O=C(Cc1c[nH]c2ccccc12)Nc1cc(F)cc(F)c1` [Example 1-18, N-(3,5-difluorophenyl)-2-(1H-indol-3-yl)acetamide], the “Remaining activity % at 10 μM” value was 97.19%. For `O=C(Cc1c[nH]c2ccccc12)Nc1ccc(Cl)c([N+](=O)[O-])c1` [Example 1-19, N-(4-chloro-3-nitrophenyl)-2-(1H-indol-3-yl)acetamide], the “Remaining activity % at 10 μM” value was “not active”. `O=C(Cc1c[nH]c2ccccc12)Nc1ccc(Cl)c(Cl)c1` [Example 1-20, N-(3,4-dichlorophenyl)-2-(1H-indol-3-yl)acetamide] was tested, and the “Remaining activity % at 10 μM” value was “not active”. For `O=C(Cc1c[nH]c2ccccc12)Nc1ccc(Br)cn1` [Example 1-21, N-(5-bromopyridin-2-yl)-2-(1H-indol-3-yl)acetamide], the “Remaining activity % at 10 μM” value was 46.59%. `O=C(Cc1c[nH]c2ccccc12)Nc1ccc(F)cn1` [Example 1-22, N-(5-fluoropyridin-2-yl)-2-(1H-indol-3-yl)acetamide] was tested, and the “Remaining activity % at 10 μM” value was 66.5%. `O=C(Cc1c[nH]c2ccccc12)Nc1ccccc1` [Example 1-23, 2-(1H-indol-3-yl)-N-phenylacetamide] was tested, and the “Remaining activity % at 10 μM” value was “not active”. With `O=C(Cc1c[nH]c2ccccc12)Nc1ccc(O)cc1` [Example 1-24, N-(4-hydroxyphenyl)-2-(1H-indol-3-yl)acetamide] the “Remaining activity % at 10 μM” value was “not active”. With `COC(=O)c1ccc(NC(=O)Cc2c[nH]c3ccccc23)cc1` [Example 1-25, methyl 4-(2-(1H-indol-3-yl)acetamido)benzoate] the “Remaining activity % at 10 μM” value was 66.73%. In the case of `O=C(Cc1c[nH]c2ccccc12)Nc1ccc(C(F)(F)F)cc1` [Example 1-26, 2-(1H-indol-3-yl)-N-(4-(trifluoromethyl)phenyl)acetamide], the “Remaining activity % at 10 μM” value is reported as 82.43%. `CC(C)(C)c1ccc(NC(=O)Cc2c[nH]c3ccccc23)cc1` [Example 1-27, N-(4-tert-butylphenyl)-2-(1H-indol-3-yl)acetamide] was tested, and the “Remaining activity % at 10 μM” value was 81.22%. `COc1ccc(NC(=O)Cc2c[nH]c3ccccc23)cc1OC` [Example 1-28, N-(3,4-dimethoxyphenyl)-2-(1H-indol-3-yl)acetamide] was tested, and the “Remaining activity % at 10 μM” value was “not active”. With `CCOC(=O)c1ccc(NC(=O)Cc2c[nH]c3ccccc23)cc1` [Example 1-29, ethyl 4-(2-(1H-indol-3-yl)acetamido)benzoate] the “Remaining activity % at 10 μM” value was 76.8%. `O=C(Cc1c[nH]c2ccccc12)Nc1cccc([N+](=O)[O-])c1` [Example 1-30, 2-(1H-indol-3-yl)-N-(3-nitrophenyl)acetamide] was tested, and the “Remaining activity % at 10 μM” value was “not active”. For `C#Cc1ccc(NC(=O)Cc2c[nH]c3ccccc23)cc1` [Example 1-31, N-(4-ethynylphenyl)-2-(1H-indol-3-yl)acetamide], the “Remaining activity % at 10 μM” value was “not active”. With `O=C(Cc1c[nH]c2ccccc12)Nc1cc(C(F)(F)F)cc(C(F)(F)F)c1` [Example 1-32, N-(3,5-bis(trifluoromethyl)phenyl)-2-(1H-indol-3-yl)acetamide] the “Remaining activity % at 10 μM” value was 40.95%. `CC(C)c1ccc(NC(=O)Cc2c[nH]c3ccccc23)cc1` [Example 1-33, 2-(1H-indol-3-yl)-N-(4-isopropylphenyl)acetamide] was tested, and the “Remaining activity % at 10 μM” value was 83.43%. For `CCC(C)c1ccc(NC(=O)Cc2c[nH]c3ccccc23)cc1` (stereo not drawn) [Example 1-34, N-(4-sec-butylphenyl)-2-(1H-indol-3-yl)acetamide], the “Remaining activity % at 10 μM” value was 66.07%. For `O=C(Cc1c[nH]c2ccccc12)NCc1ccccc1F` [Example 1-35, N-(2-fluorobenzyl)-2-(1H-indol-3-yl)acetamide], the “Remaining activity % at 10 μM” value was 83.61%. For `O=C(Cc1c[nH]c2ccccc12)NCc1cccc(F)c1` [Example 1-36, N-(3-fluorobenzyl)-2-(1H-indol-3-yl)acetamide], the “Remaining activity % at 10 μM” value was 76.23%.

Same assay, conditions: compound 10 μM, cells without the compound = 100%, 10 µM
With `O=C(NNc1ccc(Cl)c(Cl)c1)c1cc2ccccc2[nH]1` [Example 1-6, N′-(3,4-dichlorophenyl)-1H-indole-2-carbohydrazide] the “Remaining activity % at 10 μM” value was 86.59%.
